{"source": "patent US20060165644A1", "about": "“Cosmetics” (Fancl Corporation, priority 2002, published 2006)", "system": "Pseudomonas aeruginosa, Escherichia coli, Staphylococcus aureus", "test": "Evaluation of reduction effect for inoculated bacteria", "assay_type": "cell-based", "details": "about 10^7 bacteria per 1 g sample; 7 days at 25° C.; plate count", "method": "Pseudomonas aeruginosa, Escherichia coli, Staphylococcus aureus of about 10^7 were inoculated to the samples shown in Table 3 per 1 g of the respective samples. The viable microbe cell number were measured by plate count method after cultivation for 7 days at 25° C.\nThe viable microbe cell number on seventh day was calculated as a residual rate by defining the number of inoculated microbes to 100%, and the antibacterial activity of the samples was evaluated by classifying the residual rate into standards of four ranks as follow.", "data": [{"smiles": "CCCC(O)CO", "note": "(centres unmarked) [Sample 10, 1,2-pentanediol]", "values": [{"measurement": "Antibacterial activity (residual rate of viable microbes)", "result": "◯ (Residual rate lower than 10%, not lower than 0.01%)"}]}, {"smiles": "CC(O)CCO", "note": "(centres unmarked) [Sample 9, 1,3-butylene glycol]", "values": [{"measurement": "Antibacterial activity (residual rate of viable microbes)", "result": "◯ (Residual rate lower than 10%, not lower than 0.01%)"}]}]}
